# Laboratory results from patent publication US9884865B2, “Azaspiro[4.5] decane derivatives and use thereof” (Purdue Pharma L.P., priority 2013, dated 2018).
# Target: T1, human Nav1.7 (Homo sapiens (Human), UniProt Q15858)
# Experiment: FLIPR sodium dye assay (CoroNa Green AM Na+ dye, primary fluorescence assay)
# Type: cell-based
# Settings: recombinant human Nav1.7 in HEK293
# T1 sequence (Q15858 other isoform, or with tags, fused parts or gaps): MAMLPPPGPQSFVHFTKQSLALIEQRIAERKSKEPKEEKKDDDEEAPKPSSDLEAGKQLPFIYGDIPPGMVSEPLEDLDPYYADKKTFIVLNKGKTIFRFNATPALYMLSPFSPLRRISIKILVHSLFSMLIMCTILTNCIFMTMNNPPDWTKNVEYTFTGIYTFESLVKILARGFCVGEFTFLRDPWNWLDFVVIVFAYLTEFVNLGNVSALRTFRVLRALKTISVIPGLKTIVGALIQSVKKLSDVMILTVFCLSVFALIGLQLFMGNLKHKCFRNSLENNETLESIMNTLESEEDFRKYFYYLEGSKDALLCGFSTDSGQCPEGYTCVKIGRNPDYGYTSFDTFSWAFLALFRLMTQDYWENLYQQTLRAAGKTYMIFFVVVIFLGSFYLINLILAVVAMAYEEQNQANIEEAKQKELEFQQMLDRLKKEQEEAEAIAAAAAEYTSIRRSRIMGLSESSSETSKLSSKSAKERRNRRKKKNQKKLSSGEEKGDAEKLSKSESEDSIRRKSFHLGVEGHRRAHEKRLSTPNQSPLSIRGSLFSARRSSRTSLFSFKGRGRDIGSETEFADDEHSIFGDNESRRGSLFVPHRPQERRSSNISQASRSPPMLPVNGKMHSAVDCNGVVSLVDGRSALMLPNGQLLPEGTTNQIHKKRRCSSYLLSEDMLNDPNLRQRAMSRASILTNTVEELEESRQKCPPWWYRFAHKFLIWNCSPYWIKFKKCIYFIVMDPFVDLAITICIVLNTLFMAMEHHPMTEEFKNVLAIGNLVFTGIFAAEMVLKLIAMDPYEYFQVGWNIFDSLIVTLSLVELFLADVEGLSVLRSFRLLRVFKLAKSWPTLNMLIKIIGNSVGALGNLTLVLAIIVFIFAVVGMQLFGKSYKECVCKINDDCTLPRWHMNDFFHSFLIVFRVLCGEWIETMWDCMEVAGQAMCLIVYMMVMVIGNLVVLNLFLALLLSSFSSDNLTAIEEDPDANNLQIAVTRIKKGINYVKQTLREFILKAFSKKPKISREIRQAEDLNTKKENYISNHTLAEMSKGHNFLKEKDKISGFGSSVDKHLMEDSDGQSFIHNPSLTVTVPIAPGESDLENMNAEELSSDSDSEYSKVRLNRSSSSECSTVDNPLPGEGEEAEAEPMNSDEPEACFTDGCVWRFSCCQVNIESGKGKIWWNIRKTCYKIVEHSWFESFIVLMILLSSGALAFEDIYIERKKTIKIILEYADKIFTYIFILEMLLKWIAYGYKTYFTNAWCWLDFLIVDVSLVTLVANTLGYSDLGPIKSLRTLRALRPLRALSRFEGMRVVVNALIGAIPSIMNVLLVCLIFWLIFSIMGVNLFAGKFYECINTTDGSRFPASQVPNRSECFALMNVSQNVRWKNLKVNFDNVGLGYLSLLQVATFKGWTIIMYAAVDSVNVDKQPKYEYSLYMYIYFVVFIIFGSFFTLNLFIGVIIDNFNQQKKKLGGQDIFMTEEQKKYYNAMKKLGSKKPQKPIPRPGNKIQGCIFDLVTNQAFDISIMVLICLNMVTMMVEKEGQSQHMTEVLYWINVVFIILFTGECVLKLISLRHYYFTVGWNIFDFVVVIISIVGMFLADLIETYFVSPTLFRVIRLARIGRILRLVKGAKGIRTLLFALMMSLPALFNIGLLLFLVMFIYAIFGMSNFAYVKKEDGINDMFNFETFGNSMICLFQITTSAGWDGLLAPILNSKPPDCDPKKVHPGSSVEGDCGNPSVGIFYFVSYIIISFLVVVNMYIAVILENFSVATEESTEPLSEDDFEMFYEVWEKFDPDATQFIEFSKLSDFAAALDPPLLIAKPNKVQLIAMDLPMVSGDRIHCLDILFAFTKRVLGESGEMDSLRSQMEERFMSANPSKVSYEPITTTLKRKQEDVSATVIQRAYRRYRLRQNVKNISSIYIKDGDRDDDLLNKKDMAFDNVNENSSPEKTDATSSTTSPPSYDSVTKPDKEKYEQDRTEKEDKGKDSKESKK
row,IC50,SMILES
1,3.86 ± 0.39 µM,"NC(=O)c1cc(N[C@H]2CCNC2=O)nc(N2CCC3(CC2)OC(=O)c2ccccc23)n1 [Compound 10, (S)-2-(3-oxo-3H-spiro [isobenzofuran-1,4′-piperidin]-1′-yl)-6-((2-oxopyrrolidin-3-yl)amino)pyrimidine-4-carboxamide]"
2,1.3 ± 0.124 µM,"NC(=O)c1cc(N[C@H]2CCNC2=O)nc(N2CCC3(C=Cc4ccccc43)CC2)n1 [Compound 9, (S)-6-((2-oxopyrrolidin-3-yl)amino)-2-(spiro[indene-1,4′-piperidin]-1′-yl)pyrimidine-4-carboxamide]"
3,> 20 µM,"NC(=O)c1cc(N[C@H]2CCNC2=O)nc(N2CCC3(CC2)C(=O)NCN3c2ccccc2)n1 [Compound 11, (S)-2-(4-oxo-1-phenyl-1,3,8-triazaspiro[4.5]decan-8-yl)-6-((2-oxopyrrolidin-3-yl)amino)pyrimidine-4-carboxamide]"
4,3.92 ± 0.466 µM,"NC(=O)c1cc(N[C@H]2CCNC2=O)nc(N2CCC3(CC2)OCc2ccccc23)n1 [Compound 8, (S)-6-((2-oxopyrrolidin-3-yl)amino)-2-(3H-spiro[isobenzofuran-1,4′-piperidin]-1′-yl)pyrimidine-4-carboxamide]"

# Target: T1, human Nav1.7
# Experiment: FLIPR membrane potential dye assay (alternative fluorescence assay)
# Type: cell-based
# Settings: not given
row,IC50,SMILES
1,872 ± 117 nM,"O=C1NC(=O)C2(CCN(c3cc(-c4ccc(OC(F)(F)F)cc4)ccn3)CC2)N1 [Compound 15, 8-(4-(4-(trifluoromethoxy)phenyl)pyridin-2-yl)-1,3,8-triazaspiro[4.5]decane-2,4-dione]"
2,1730 ± 649 nM,"O=C1NC(=O)C2(CCN(c3ccc(Oc4ccc(C(F)(F)F)cc4)cn3)CC2)N1 [Compound 17, 8-(5-(4-(trifluoromethyl)phenoxy)pyridin-2-yl)-1,3,8-triazaspiro[4.5]decane-2,4-dione]"
3,> 20000 nM,"O=C1NC(=O)C2(CCN(c3ncccc3Oc3ccc(F)cc3)CC2)N1 [Compound 20, 8-(3-(4-Fluorophenoxy)pyridin-2-yl)-1,3,8-triazaspiro[4.5]decane-2,4-dione]"
4,1980 ± 309 nM,"O=C1NC(=O)C2(CCN(c3cc(-c4cccc(OC(F)(F)F)c4)ccn3)CC2)N1 [Compound 21, 8-(4-(3-(Trifluoromethoxy)phenyl)pyridin-2-yl)-1,3,8-triazaspiro[4.5]decane-2,4-dione]"
5,1540 ± 223 nM,"O=C1NC(=O)C2(CCN(c3ccc(Oc4cccc(F)c4)cc3)CC2)N1 [Compound 13, 8-(4-(3-Fluorophenoxy)phenyl)-1,3,8-triazaspiro[4.5]decane-2,4-dione]"
6,1440 ± 492 nM,"O=C1NC(=O)C2(CCN(c3ccc(Oc4cccc(C(F)(F)F)c4)cn3)CC2)N1 [Compound 18, 8-(5-(3-(trifluoromethyl)phenoxy)-pyridin-2-yl)-1,3,8-triazaspiro[4.5]decane-2,4-dione]"
7,> 20000 nM,"O=C1NC(=O)C2(CCN(c3ccc(Oc4ccc(C(F)(F)F)cc4)cc3)CC2)N1 [Compound 19, 8-(4-(4-(trifluoromethyl)phenoxy)phenyl)-1,3,8-triazaspiro[4.5]decane-2,4-dione]"
8,4480 ± 1040 nM,"O=C1NC(=O)C2(CCN(c3ccc(Oc4ccc(F)cc4)cn3)CC2)N1 [Compound 16, 8-(5-(4-Fluorophenoxy)pyridin-2-yl)-1,3,8-triazaspiro[4.5]decane-2,4-dione]"
9,> 20000 nM,"O=C1NC(=O)C2(CCN(c3ccc(Oc4ccc(F)cc4)cc3)CC2)N1 [Compound 12, 8-(4-(4-Fluorophenoxy)phenyl)-1,3,8-triazaspiro[4.5]decane-2,4-dione]"
10,1270 ± 380 nM,"O=C1NC(=O)C2(CCN(c3ccc(Oc4cccc(C(F)(F)F)c4)cc3)CC2)N1 [Compound 14, 8-(4-(3-(Trifluoromethyl)phenoxy)phenyl)-1,3,8-triazaspiro[4.5]decane-2,4-dione]"
